The target of the experiment is T1, human 5-HT2B receptor (Homo sapiens, UniProt P41595).
T1 construct: expressed in transfected cells; host or cells: CHO cells
Kind of experiment: Antagonism of human serotonin 5-HT2B, IP1 functional assay (HTRF) in transfected CHO cells. The format is cell-based. To be noted: inhibition of IP1 production induced by 30 nM 5-HT. How it is done:
The human 5-HT2B receptor expressed in transfected CHO cells is used to determine antagonistic effects by measuring the effects on agonist-induced inositol monophosphate (IP1) production using the HTRF® detection method (Porter et al., 1999, Brit. J. Pharmacol., 128: 13-20; Trinquet et al., 2006, Analytical Biochemistry 358, 126-135) The CHO cells can be suspended in a buffer containing 10 mM Hepes/NaOH (pH 7.4), 4.2 mM KCl, 146 mM NaCl, 1 mM CaCl2, 0.5 mM MgCl2, 5.5 mM glucose and 50 mM LiCl, then distributed in microtiter plates at a density of about 20000 cells/well and preincubated for 5 min at room temperature in the presence of buffer (basal control), test compound, i.e. reference samples and inventive mixture of retinyl acetate (“retAc”) (see Table 1) or a very potent known reference antagonist SB-206553. Thereafter, the reference agonist 5-HT (serotonin) is added at a final concentration of 30 nM. […] Following 30 min incubation at 37° C., the cells are lysed and the fluorescence acceptor (D2-labeled IP1) and fluorescence donor (anti-IP1 antibody labeled with europium cryptate) are added. After 60 min at room temperature, the fluorescence transfer is measured at wavelengths Ex=337 nm and Em=620 and 665 nm using a microplate reader (Envision, Perkin Elmer). The IP1 concentration can be determined by dividing the signal measured at 665 nm by that measured at 620 nm (ratio). The results are expressed as a percent inhibition of the control response to 30 nM 5-HT. Mean values, standard deviation are calculated and used in a dose response model to calculate the IC50 values.
The standard reference antagonist SB-206553 is tested in each experiment at several concentrations to generate a concentration-response curve. The dose response curve is used to calculate the IC50 value. The same procedure is done for RetAc mix and the Reference RetAc to determine the IC50 values.
(In general: In TR-FRET formats the signal depends on donor and acceptor labels being close together.)

Our source for the IC50 values is patent US20250032439A1, “NOVEL COMPOSITIONS” (DSM IP ASSETS B.V., priority 2021, published 2025).

T1 sequence (P41595 whole entry): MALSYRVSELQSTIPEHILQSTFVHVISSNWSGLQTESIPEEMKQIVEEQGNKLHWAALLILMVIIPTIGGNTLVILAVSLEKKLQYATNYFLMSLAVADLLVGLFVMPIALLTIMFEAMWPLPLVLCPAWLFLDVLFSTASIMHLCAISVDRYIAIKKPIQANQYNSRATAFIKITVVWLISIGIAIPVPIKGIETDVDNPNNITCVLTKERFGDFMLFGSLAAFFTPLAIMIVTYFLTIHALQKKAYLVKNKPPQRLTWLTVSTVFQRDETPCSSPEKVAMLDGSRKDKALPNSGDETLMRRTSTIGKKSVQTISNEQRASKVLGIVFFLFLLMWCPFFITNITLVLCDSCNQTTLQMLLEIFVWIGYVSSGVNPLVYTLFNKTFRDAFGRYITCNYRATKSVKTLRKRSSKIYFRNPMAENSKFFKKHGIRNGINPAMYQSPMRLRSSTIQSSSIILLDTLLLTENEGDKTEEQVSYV

With `CC(=O)OC/C=C(C)/C=C/C=C(C)/C=C/C1=C(C)CCCC1(C)C` [Reference retAc, retinyl acetate], the IC50 came out at 12 µM.
In turn, `CC(=O)OC/C=C(C)/C=C/C=C(C)/C=C/C1=C(C)CCCC1(C)C` [RetAc mix, retinyl acetate] registered an IC50 of 5.2 µM.
Compound `Cn1ccc2cc3c(cc21)CCN3C(=O)Nc1cccnc1` [SB-206553] had an IC50 of 0.026 µM.

In general, IC50 refers to the concentration at which inhibition is half-maximal. A low value points to greater potency in that assay.
